Patent US20250339409A1, “USES OF PAN BET INHIBITORS” (VYNE THERAPEUTICS INC., priority 2021, published 2025)

Test system: 92 target genes related to melanogenesis
Assay: RHE vitiligo model: gene expression analysis (TaqMan low density array, RT-qPCR)
Type: cell-based, human
Design: key to FC of XPC gene expression / FC of GNAS gene expression / FC of ATP7A gene expression / FC of TYR gene expression / FC of RAB27A gene expression / FC of KITLG gene expression / FC of ADCY2 gene expression: fold change in expression by comparative Ct (ΔΔCt) method
Method: At the end of the treatments, total RNAs is extracted from 3 epidermis per condition (n=3) using the Qiagen RNeasy kit (Qiagen; 74106). Epidermis is rinsed with cold PBS and lysed in the ad hoc buffer provided in the kit. Extraction is performed according to the supplier's recommendations. The collected RNAs is stored at −80° C.
The RNA concentration is determined by spectrophotometric measurement (QIAxpert, Qiagen) and the RNA quality is analyzed by capillarity electrophoresis (Agilent Bioanalyzer 2100-Agilent RNA 6000 Nano Kit, 5067-1511). The integrity of the total RNA is assessed by visualization of intact ribosomal RNA bands. For the total RNA from higher eukaryotes, the size of the ribosomal bands should be 1.9 kb for the 18S-RNA and 4.7 kb for the 28S-RNA. The intensity of the band corresponding to the 28S RNA must be greater than the intensity of the band corresponding to the 18S-RNA (left profile, in image below). Small and diffuse bands representing low molecular weight RNAs (tRNA and 5S ribosomal RNA) may be present. Degradation of the RNA is apparent as a smearing of ribosomal RNA bands and high molecular weight background as shown below (right profile, in image below).
Reverse transcription is performed with the high-capacity RNA-to-cDNA kit (Applied Biosystems; 438706) from total RNA according to the manufacturer's instructions. The cDNAs are then stored at −20° C. until use in polymerase chain reactions.
The microfluidic TaqMan qPCR arrays (or TaqMan low density arrays) were designed by StratiCELL and manufactured on demand by Applied Biosystems. […]
The TaqMan arrays are processed as described by the manufacturer's instructions (Micro Fluidic Card Getting Started Guide, Applied Biosystems). Briefly, cDNAs are mixed with a specific buffer (TaqMan Fast Advanced Master Mix, 4444557, Applied Biosystems) before being injected into the arrays and dispersed into the wells by centrifugation. Arrays are sealed and qPCRs are run using the Quantstudio7 Real-Time PCR System (Applied Biosystems) and its software (QuantStudio real time PCR Software v1.3. software, Applied Biosystems).
Threshold cycles (Ct) are obtained for each gene. Results files are exported from the qPCR device and analyzed using the DataAssist Software (v3.00, Applied Biosystems) designed to perform relative quantification of gene expression using the comparative Ct (ΔΔCt) method, through a combination of statistical analysis.
The data obtained for the conditions treated with the formulations is compared to the untreated condition or to the condition treated with the vehicle. The effects of the cytokine cocktail stimulation are analyzed as well by comparison of the data obtained for the untreated control (unstimulated) to the data obtained for the stimulated untreated control. The Ct values are normalized to the mean Ct of 3 housekeeping genes present on the array. The maximum Ct cut-off value was fixed at 36 cycles meaning that Ct values above 36 are not considered in the analysis. […]

[1] = Stimulated + BETi1 0.001% vs Stimulated + BETi1 vehicle, results after correction
[2] = Stimulated + BETi1 0.001% vs Stimulated + BETi1 vehicle, results after correction, inconclusive, Ct of some replicates above 36
[3] = Stimulated + BETi1 0.001% vs Stimulated + BETi1 vehicle, results as originally presented (transcription error)
[4] = Stimulated + BETi1 0.001% vs Stimulated + BETi1 vehicle, results as originally presented (transcription error), inconclusive, Ct of some replicates above 36
[5] = Stimulated + BETi1 1% vs Stimulated + BETi1 vehicle, results after correction
[6] = Stimulated + BETi1 1% vs Stimulated + BETi1 vehicle, results after correction, inconclusive, Ct of some replicates above 36
[7] = Stimulated + BETi1 1% vs Stimulated + BETi1 vehicle, results as originally presented (transcription error for some genes)

Q: For `Cn1cc(-c2cccc(O)c2Oc2ccccc2)c2cc[nH]c2c1=O` [BETi1], which “WNT signaling pathway upregulation, increase” value (1% concentration, relative to vehicle / stimulated control) is on record?
A: The value was 10 fold.

Q: And the “FC of AP1M1 gene expression” value [1]?
A: The value was 0.7447.

Q: And the “FC of APAF1 gene expression” value [1]?
A: The value was 1.5797.

Q: What about the “FC of BCL2 gene expression” value [1] of the same molecule?
A: The value was 0.7462.

Q: What about the “FC of HPS4 gene expression” value [1] of the same molecule?
A: The value was 0.6711.

Q: What about the “FC of POMC gene expression” value [1] of the same molecule?
A: Its value is 0.5586.

Q: What about the “FC of ASIP gene expression” value [2] of the same molecule?
A: The value was 0.7104.

Q: What about the “FC of CALML6 gene expression” value [2] of the same molecule?
A: The value was 0.7104.

Q: And the “FC of GNAO1 gene expression” value [2]?
A: The value was 0.7104.

Q: What about the “FC of AP1M1 gene expression” value [3] of the same molecule?
A: Its value is 0.6303.

Q: What about the “FC of APAF1 gene expression” value [3] of the same molecule?
A: The value was 3.5532.

Q: What about the “FC of BCL2 gene expression” value [3] of the same molecule?
A: Its value is 1.3312.

Q: What about the “FC of HPS4 gene expression” value [3] of the same molecule?
A: The value was 0.4147.

Q: And the “FC of POMC gene expression” value [3]?
A: The value was 0.3574.

Q: What about the “FC of ASIP gene expression” value [4] of the same molecule?
A: Its value is 0.6303.

Q: What about the “FC of GNAO1 gene expression” value [4] of the same molecule?
A: The value was 0.6303.

Q: What about the “FC of AIM1 gene expression” value [5] of the same molecule?
A: Its value is 0.4502.

Q: And the “FC of AP1S1 gene expression” value [5]?
A: The value was 0.6116.

Q: What about the “FC of ATP2A2 gene expression” value [5] of the same molecule?
A: The value was 0.2632.

Q: And the “FC of ATP7A gene expression” value [5]?
A: The value was 0.4094.

Q: And the “FC of BAD gene expression” value [5]?
A: Its value is 0.2547.

Q: And the “FC of BCL2 gene expression” value [5]?
A: Its value is 0.5772.

Q: And the “FC of CREBBP gene expression” value [5]?
A: Its value is 0.3195.

Q: What about the “FC of DVL1 gene expression” value [5] of the same molecule?
A: Its value is 0.4492.

Q: What about the “FC of EDN1 gene expression” value [5] of the same molecule?
A: Its value is 0.0395.

Q: What about the “FC of EDNRB gene expression” value [5] of the same molecule?
A: Its value is 0.1544.

Q: What about the “FC of GADD45A gene expression” value [5] of the same molecule?
A: The value was 0.2375.

Q: And the “FC of GNAI1 gene expression” value [5]?
A: The value was 0.3672.

Q: What about the “FC of GNAS gene expression” value [5] of the same molecule?
A: Its value is 0.4273.

Q: What about the “FC of HPS1 gene expression” value [5] of the same molecule?
A: The value was 0.5127.

Q: What about the “FC of HPS4 gene expression” value [5] of the same molecule?
A: Its value is 0.3088.

Q: What about the “FC of IL1A gene expression” value [5] of the same molecule?
A: Its value is 0.0124.

Q: And the “FC of IL1B gene expression” value [5]?
A: Its value is 0.0208.

Q: What about the “FC of KIT gene expression” value [5] of the same molecule?
A: The value was 0.6404.

Q: What about the “FC of MAPK14 gene expression” value [5] of the same molecule?
A: Its value is 0.3927.

Q: What about the “FC of MLPH gene expression” value [5] of the same molecule?
A: The value was 0.3039.

Q: What about the “FC of MYO5A gene expression” value [5] of the same molecule?
A: Its value is 0.4524.

Q: And the “FC of OCA2 gene expression” value [5]?
A: The value was 0.293.

Q: What about the “FC of PCNA gene expression” value [5] of the same molecule?
A: Its value is 7.0134.

Q: And the “FC of POMC gene expression” value [5]?
A: Its value is 0.1039.

Q: And the “FC of PTGER3 gene expression” value [5]?
A: The value was 0.4259.

Q: And the “FC of RAB3A gene expression” value [5]?
A: The value was 14.5685.

Q: What about the “FC of RAB27A gene expression” value [5] of the same molecule?
A: Its value is 0.2763.

Q: What about the “FC of RAB32 gene expression” value [5] of the same molecule?
A: The value was 0.1471.

Q: What about the “FC of RAB38 gene expression” value [5] of the same molecule?
A: Its value is 0.3579.

Q: And the “FC of SLC24A5 gene expression” value [5]?
A: Its value is 0.1051.

Q: What about the “FC of SNAP25 gene expression” value [5] of the same molecule?
A: Its value is 0.2366.

Q: And the “FC of SOX9 gene expression” value [5]?
A: The value was 0.0882.

Q: What about the “FC of SOX10 gene expression” value [5] of the same molecule?
A: Its value is 0.4034.

Q: What about the “FC of STX6 gene expression” value [5] of the same molecule?
A: Its value is 0.3683.

Q: And the “FC of TYR gene expression” value [5]?
A: The value was 0.405.

Q: And the “FC of USF1 gene expression” value [5]?
A: Its value is 0.497.

Q: What about the “FC of WNT16 gene expression” value [5] of the same molecule?
A: The value was 10.0801.

Q: And the “FC of XPC gene expression” value [5]?
A: Its value is 1.6569.

Q: And the “FC of ASIP gene expression” value [6]?
A: Its value is 0.4753.

Q: And the “FC of CALML6 gene expression” value [6]?
A: Its value is 0.4753.

Q: What about the “FC of CAMK2A gene expression” value [6] of the same molecule?
A: The value was 0.4753.

Q: And the “FC of GNAO1 gene expression” value [6]?
A: The value was 0.4753.

Q: What about the “FC of PTGER1 gene expression” value [6] of the same molecule?
A: The value was 0.4753.

Q: And the “FC of AIM1 gene expression” value [7]?
A: Its value is 0.4753.

Q: What about the “FC of AP1S1 gene expression” value [7] of the same molecule?
A: Its value is 0.727.

Q: And the “FC of ATP2A2 gene expression” value [7]?
A: The value was 0.293.

Q: What about the “FC of ATP7A gene expression” value [7] of the same molecule?
A: Its value is 0.4273.

Q: And the “FC of BAD gene expression” value [7]?
A: Its value is 0.2763.

Q: And the “FC of BCL2 gene expression” value [7]?
A: Its value is 0.6404.

Q: What about the “FC of CREBBP gene expression” value [7] of the same molecule?
A: The value was 0.3672.

Q: What about the “FC of DVL1 gene expression” value [7] of the same molecule?
A: Its value is 0.4524.

Q: What about the “FC of EDN1 gene expression” value [7] of the same molecule?
A: Its value is 0.1039.

Q: And the “FC of EDNRB gene expression” value [7]?
A: The value was 0.2375.

Q: And the “FC of GADD45A gene expression” value [7]?
A: The value was 0.2632.

Q: And the “FC of GNAI1 gene expression” value [7]?
A: Its value is 0.3927.

Q: And the “FC of GNAS gene expression” value [7]?
A: Its value is 0.4502.

Q: And the “FC of HPS1 gene expression” value [7]?
A: Its value is 0.6116.

Q: What about the “FC of HPS4 gene expression” value [7] of the same molecule?
A: The value was 0.3579.

Q: And the “FC of IL1A gene expression” value [7]?
A: Its value is 0.0395.

Q: What about the “FC of IL1B gene expression” value [7] of the same molecule?
A: Its value is 0.0882.

Q: And the “FC of KIT gene expression” value [7]?
A: Its value is 1.6569.

Q: And the “FC of MAPK14 gene expression” value [7]?
A: The value was 0.405.

Q: And the “FC of MLPH gene expression” value [7]?
A: The value was 0.3195.

Q: What about the “FC of MYO5A gene expression” value [7] of the same molecule?
A: The value was 0.4753.
